Test results from patent US10760052B2, “Method of inhibiting tau phosphorylation” (priority 2012, dated 2020).
Where two headings read alike, the source gives them in different places.

Target: T1, mu opiate receptor (MOR) (Rattus norvegicus, UniProt P33535)
T1 construct: from tissue; host or cells: striatum (membrane preparation)
Assay type: biochemical

[1] = [35S]GTPγS binding to Gαo in striatal membranes, compound 0.1 μM
[2] = [35S]GTPγS binding to Gαo in striatal membranes, compound 1 μM
[3] = [35S]GTPγS binding to Gαo in striatal membranes, compound 1 μM plus 1 μM β-funaltrexamine (MOR antagonist)

T1 sequence (P33535 whole entry): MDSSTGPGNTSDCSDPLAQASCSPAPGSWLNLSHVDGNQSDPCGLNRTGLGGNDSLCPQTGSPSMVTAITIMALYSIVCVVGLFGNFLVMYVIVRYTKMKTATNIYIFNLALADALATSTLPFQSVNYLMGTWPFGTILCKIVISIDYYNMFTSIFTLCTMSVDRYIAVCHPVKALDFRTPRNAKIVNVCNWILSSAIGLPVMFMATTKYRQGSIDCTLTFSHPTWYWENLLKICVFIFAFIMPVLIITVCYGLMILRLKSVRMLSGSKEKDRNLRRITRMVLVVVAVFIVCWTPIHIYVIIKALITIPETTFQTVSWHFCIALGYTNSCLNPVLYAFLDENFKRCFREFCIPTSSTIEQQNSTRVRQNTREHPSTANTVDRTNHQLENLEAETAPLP

| Structure (SMILES) | % DAMGO (0.1 μM) | % DAMGO (1 μM) | % DAMGO + BFNA | Concentration of FLNA-Binding Compound as Agonist 0.1 μM [1] | Concentration of FLNA-Binding Compound as Agonist 1 μM [2] | Concentration of FLNA-Binding Compound as Agonist 1 μM + BFNA [3] | Concentration of FLNA-Binding Compound as Agonist 0.1 μM | Concentration of FLNA-Binding Compound as Agonist 1 μM | Concentration of FLNA-Binding Compound as Agonist 1 μM + BFNA |
| --- | --- | --- | --- | --- | --- | --- | --- | --- | --- |
| CC1CCC(C(C)C)C(OCC(O)CN2CCC(=O)CC2)C1 (stereo not drawn) [Compound A0060] | 63.9% | 68.6% | 35.8% | 99.7% | 158.2% | 14.3% | – | – | – |
| COc1c2c(cc3c1OCO3)CCN(CC(O)COC1CC(C)CCC1C(C)C)C2 (stereo not drawn) [Compound A0061] | 70.7% | 85.5% | 26.8% | 110.3% | 197.1% | 10.7% | – | – | – |
| CC1CCC(C(C)C)C(OCC(O)CN2CCCc3ccccc32)C1 (stereo not drawn) [Compound A0068] | 36.8% | 35.2% | 182.0% | 73.9% | 110.4% | 98.1% | – | – | – |
| COc1ccc(OCC(O)CN2CCOc3ccccc32)cc1 (stereo not drawn) [Compound A0076] | 46.4% | 78.6% | 119.4% | 79.8% | 172.6% | 41.2% | – | – | – |
| COc1ccc(OCC(O)Cn2ccc3ccccc32)cc1 (stereo not drawn) [Compound A0077] | 170.5% | 132.3% | 470.5% | 300.1% | 334.7% | 103.5% | – | – | – |
| CC1CCC(C(C)C)C(OCC(O)Cn2ccc3ccccc32)C1 (stereo not drawn) [Compound A0078] | 124.9% | 92.3% | 274.2% | – | – | – | 250.5% | 289.9% | 147.8% |
| CC1CCC(C(C)C)C(OCC(O)CN2CC(C)OC(C)C2)C1 (stereo not drawn) [Compound A3333] | 88.9% | 101.0% | 136.7% | 170.7% | 328.3% | 65.9% | – | – | – |
| COc1c2c(cc3c1C(CC(=O)c1ccc(C#N)cc1)[N+](C)(C)CC3)OCO2 (stereo not drawn) [Compound B0001] | 77.4% | 74.9% | 43.1% | 128.2% | 202.3% | 28.0% | – | – | – |
| COc1c2c(cc3c1C(CC(=O)c1ccc(O)c(C)c1)[N+](C)(C)CC3)OCO2 (stereo not drawn) [Compound B0002] | 100.0% | 81.1% | 156.0% | 165.7% | 219.0% | 101.4% | – | – | – |
| COc1c2c(cc3c1C(CC(=O)c1ccc(N4CCOCC4)cc1)[N+](C)(C)CC3)OCO2 (stereo not drawn) [Compound B0004] | 102.8% | 85.8% | 110.8% | 170.3% | 231.7% | 72.0% | – | – | – |
| COc1c2c(cc3c1C(CC(=O)c1ccncc1)[N+](C)(C)CC3)OCO2 (stereo not drawn) [Compound B0005] | 50.5% | 42.6% | 68.6% | 89.2% | 110.4% | 45.1% | – | – | – |
| COc1c2c(cc3c1C(CC(=O)c1cccc(C(F)(F)F)c1)[N+](C)(C)CC3)OCO2 (stereo not drawn) [Compound B0006] | 44.8% | 47.5% | 29.0% | 77.0% | 131.3% | 18.6% | – | – | – |
| COc1cc(F)ccc1C(=O)CC1c2c(cc3c(c2OC)OCO3)CC[N+]1(C)C (stereo not drawn) [Compound B0007] | 95.3% | 86.1% | 98.2% | 168.3% | 223.3% | 64.5% | – | – | – |
| COc1cc(CC(=O)CC2c3c(cc4c(c3OC)OCO4)CC[N+]2(C)C)cc(OC)c1OC (stereo not drawn) [Compound B0008] | 84.0% | 101.9% | 70.0% | 148.3% | 264.1% | 46.0% | – | – | – |
| COc1c2c(cc3c1C(CC(=O)Cc1ccc(Br)cc1)[N+](C)(C)CC3)OCO2 (stereo not drawn) [Compound B0011] | 95.7% | 78.7% | 120.0% | 158.6% | 212.6% | 78.0% | – | – | – |
| COc1c2c(cc3c1C(CC(=O)Cc1ccc(C#N)cc1)[N+](C)(C)CC3)OCO2 (stereo not drawn) [Compound B0012] | 97.8% | 79.4% | 278.5% | 167.4% | 212.0% | 145.1% | – | – | – |
| COc1ccc(CCC(=O)CC2c3c(cc4c(c3OC)OCO4)CC[N+]2(C)C)cc1 (stereo not drawn) [Compound B0016] | 99.2% | 79.9% | 109.4% | 167.7% | 213.6% | 72.2% | – | – | – |
| COc1c2c(cc3c1C(CC(=O)CCc1ccc(Cl)cc1)[N+](C)(C)CC3)OCO2 (stereo not drawn) [Compound B0017] | 58.9% | 45.6% | 75.2% | 99.6% | 122.0% | 49.6% | – | – | – |
| COc1c2c(cc3c1C(CC(=O)CCc1ccc(F)cc1)[N+](C)(C)CC3)OCO2 (stereo not drawn) [Compound B0018] | 70.3% | 53.5% | 69.1% | 118.8% | 143.0% | 45.6% | – | – | – |
| COc1c2c(cc3c1C(CC(=O)/C=C/c1ccc(Cl)cc1)[N+](C)(C)CC3)OCO2 (stereo not drawn) [Compound B0019] | 59.7% | 96.0% | 123.3% | 101.0% | 256.5% | 81.4% | – | – | – |
| CCOc1ccc(C(=O)CC2c3c(cc4c(c3OC)OCO4)CC[N+]2(C)C)cc1F (stereo not drawn) [Compound B0020] | 30.1% | 68.0% | 47.8% | 51.6% | 181.6% | 24.9% | – | – | – |
| COc1ccc(C(=O)CC2c3c(cc4c(c3OC)OCO4)CC[N+]2(C)C)cc1C (stereo not drawn) [Compound B0021] | 75.9% | 104.7% | 123.6% | 126.9% | 256.4% | 42.9% | – | – | – |
| COc1cccc(OC)c1C(=O)CC1c2c(cc3c(c2OC)OCO3)CC[N+]1(C)C (stereo not drawn) [Compound B0023] | 99.4% | 100.1% | 81.8% | 166.1% | 245.3% | 28.4% | – | – | – |
